The source of these data is patent US6331642A, “Vitamin D3 analogs” (Hoffmann-La Roche Inc., priority 2000, dated 2001).

Molecules are shown by their SMILES. Where two headings read alike, the source gives them in different places.

Data set [1] can be described thus: Serum calcium levels in vivo, mice. The following applies: for survival: 3 weeks of study. Further details: species or system male Balb/c mice. The protocol:
Serum Calcium Levels in vivo. Twenty-eight male Balb/c mice at 8 to 9 weeks of age were maintained in pathogen-free conditions and fed a standard laboratory diet. Four mice per group were injected intraperitoneally every other day (except Saturday and Sunday) with either vitamin D3 compound or diluant (100 μl/mouse) for 3 weeks. Doses of 1,25(OH)2-16-ene-5,6-trans-D3 were: 0.1, 0.5, 1.0, and 2.0 μg. Doses of 1,25(OH)2 D3 were 0.1 μg/mouse. Control mice were injected with 100 μl of PBS. Serum calcium values were measured every week by the quantitative, colorimetric detection assay.
Serum Calcium Levels in vivo. Because hypercalcemia is a major toxicity of vitamin D3 compounds, the calcemic effects of 1,25(OH)2 D3 were compared with 1,25(OH)2 -16-ene-5,6-trans-D3.

Data set [2] relates to hTERT mRNA. The experiment in a line: hTERT mRNA expression (RT-PCR) in HL-60 cells. In kind it is cell-based, human. The following applies: for IC (almost complete): Homo sapiens, read-out: concentration giving almost complete inhibition of hTERT mRNA expression. How it is done: Telomerase Activity. To detect the relative telomerase activity, telomeric repeat amplification protocol (TRAP) assays were performed. For human telomerase reverse transcriptase (hTERT), total RNAs were isolated from HL-cells which were treated with either 1,25(OH)2 D3 or 1,25(OH)2 -16-ene-5,6-trans-D3 (10^- 9 10^-8, and 10^-7 M) for 4 days with a monophasic solution of phenol and guanidine isothiocyanate. RT-PCR was performed with 1 μg of total RNA and random hexamer primers. cDNA was amplified using primers specific for the hTERT gene or the GAPDH gene, which was used as a control. The primers used for hTERT were: 5'-[…]-3' (sense) (SEQ ID NO: 1), and 5'-GGATGAAGCGGAGTCTGGA-3'-(antisense) (SEQ ID NO: 2). The thermal cycles were 94° C. for 90 seconds, followed by 33 cycles of 95° C. for 20 seconds, 68° C. for 40 seconds, and 72° C. for 30 seconds. Primers for the GAPDH gene were: 5'-CCATGGAGAAGGCTGGGG-3' (sense) (SEQ ID NO: 3), and 5'-[…]-3' (antisense) (SEQ ID NO: 4). Conditions for GAPDH amplifications were: 94° C. for 2 minutes, 26 cycles of 94° C. for 30 seconds, 62° C. for 40 seconds, 72° C. for 60 seconds, followed by 72° C. for 4 minutes. PCR products were electrophoresed on 1% agarose gel and stained with ethidium bromide.
The effects of vitamin D3 analogs on hTERT expression in HL-60 cells was evaluated using RT-PCR.

For data set [3], the system named is p27^kip1. As to the kind of experiment: Western blot analysis, p27^kip1 in HL-60 cells. In kind it is cell-based. How it is done:
Western Blot Analysis. Cells were washed twice with PBS, suspended in Lysis buffer (50 mM Tris Ph 8.0, 150 mM NaCl, 0.1% SDS, 0.5% sodium deoxycholate, 1% NP40, 100 μg/ml phenylmethylsulfonyl fluoride, 2 μg/ml aprotinin, 1 μg/ml pepstatin and 10 μg/ml leupeptin), and placed on ice for 30 minutes. After centrifugation at 15,000 g for 20 minutes at 4° C., the supernatant was collected. Protein concentrations were quantitated. […] Blots were developed.
The dose-dependent effect of the vitamin D3 compounds on expression of p27^kip1 HL-60 cells was examined.
Background: In western blotting, separated proteins are transferred to a membrane and probed.

For data set [4], the system named is MCF-7 cells. As to the kind of experiment: Cell cycle analysis by flow cytometry. In kind it is cell-based. The settings on record: 10^-7 M, 4 days. The protocol: Cell Cycle Analysis by Flow Cytometry. Cell cycle analysis was performed on MCF-7 cells incubated for 4 days with either 1,25(OH)2 D3 or 1,25(OH)2 -16-ene-5,6-trans-D3 at 10^-7 M. The cells were fixed in chilled methanol overnight before staining with 50 μg/ml propidium iodide, 1 mg/ml Rnase (100 units/ml) and 0.1% NP40. Analysis was performed immediately after staining. All experiments were done at least three times independently. All data were statistically analyzed by Student's test.
Cell cycle Analysis. Effect of 1,25(OH)2 -16-ene-5,6-trans-D3 and 1,25(OH)2 D3 (10^-7, 4 days) on the cell cycle of the MCF-7 cells was determined.
For orientation: A flow cytometer gives signals particle by particle.

The subject of data set [5] is MCF-7 cells. As to the kind of experiment: Pulse-exposure experiments, soft agar colony assay. In kind it is cell-based. The following applies: 4 days of exposure, 10^-7, colonies counted day 14. The protocol: Pulse-Exposure Experiments. The MCF-7 cells were incubated in liquid culture with 10^-7 of 1,25(OH)2 D3 or 1,25(OH)2 -16-ene-5,6-trans-D3 for various duration. After incubation, these cells were carefully washed twice with PBS and viable cells were counted and plated into 24-well plates for soft agar colony assay, as previously described.
Pulse-Exposure Experiments. […] The MCF-7 cells were exposed to either 1,25(OH)2 -16-ene-5,6-trans-D3 or 1,25(OH)2 D3 for various durations, washed thoroughly, plated in soft agar, and colony numbers were enumerated on day 14 of culture.

Data set [6] relates to seminal vesicles. As to the kind of experiment: Antiandrogenic activity in castrated testosterone stimulated hamsters, seminal vesicles. It counts as in vivo, male Syrian hamsters. The protocol: 1,25(OH)2 -16-ene-5,6-trans D3 was evaluated for antiandrogenic activity in castrated, testosterone stimulated male Syrian hamsters.
[…] Both compounds were administered in a vehicle of 0.2 ml sesame oil each. Necropsy was performed on day 15. The prostate and seminal vesicles were removed, blotted and weighed. Data were analyzed for statistical significance using the Student's t-test and are expressed as percent inhibition of stimulated response.

Data set [7] has as its system p21^waf1. As to the kind of experiment: Western blot analysis, p21^waf1 in MCF-7 cells. It counts as cell-based. The settings on record: Homo sapiens, read-out: increase in expression of p21^waf1. The protocol:
Western Blot Analysis. Cells were washed twice with PBS, suspended in Lysis buffer (50 mM Tris Ph 8.0, 150 mM NaCl, 0.1% SDS, 0.5% sodium deoxycholate, 1% NP40, 100 μg/ml phenylmethylsulfonyl fluoride, 2 μg/ml aprotinin, 1 μg/ml pepstatin and 10 μg/ml leupeptin), and placed on ice for 30 minutes. After centrifugation at 15,000 g for 20 minutes at 4° C., the supernatant was collected. Protein concentrations were quantitated. Whole lysates (15 μg) were resolved by 15% sodium dodecyl sulphate polyacrylamide gel, were transferred to an immobilon polyvinylidene difuride membrane and were probed with anti-p27^kip1 rabbit polyclonal antibody and anti-Actin murine monoclonal antibody. Blots were developed.
Western Blot Analysis. The cyclin dependent kinase inhibitors known as p21^waf1 and p27^kip1 are able to inhibit the activity of cyclin kinase and thus slow the progression for the cells through the cell cycle. […] Exposure for one day to 1,25(OH)2 -16-ene-5,6-trans-D3 (10^-7 M) increased expression of p21^waf1 and p27^kip1 by about 3.2-3.5 fold, whereas culture with 1,25(OH)2 D3 (10^-7 M) increased expression of p21^waf1 and p27^kip1 about 1.6-1.8 fold. […] 1,25(OH)2 D3 (10^-7 M, 3 days) increased expression of p21^waf1 and p27^kip1 by 4.8 fold and 3.3 fold, respectively.

In the case of `C=C1/C(=C\C=C2/CCC[C@]3(C)[C@@H]([C@H](C)CCCC(C)(C)O)CC[C@@H]23)C[C@@H](O)C[C@@H]1O` [1,25(OH)2 D3, reference compound], the hypercalcemia result in data set [1] (0.1 μg/mouse i.p. every other day, 3 weeks) is recorded as “all hypercalcemic”. In addition, the serum calcium level result in data set [1] (0.1 μg/mouse i.p. every other day, 3 weeks, normal 8.5-10.5 mg/dl) is “approximately 12 mg/dl”. Besides, the survival entry in data set [1] was “All mice survived”. In addition, the “expression of hTERT mRNA” value in data set [2] (HL-60 cells, 4 days) is “inhibited the expression of hTERT mRNA in a dose-dependent manner”. The IC (almost complete) in data set [2] (HL-60, 96 h) came to 0.1 µM. The “expression of p27^kip1” value in data set [3] is “up-regulated”. Moreover, the “levels of p27^kip1” value in data set [3] (10^-8-10^-7 M) is given as “increased prominently”. In data set [4], the “number of cells in the G0-G1 phase” value is listed as “significant increase (P≤0.05)”. In addition, the “proportion of cells in S phase” value in data set [4] is “concomitant decrease”. Moreover, in data set [5], the clonogenic cells inhibited entry is listed as “thirty”. In addition, the “androgen-induced hypertrophy of the seminal vesicles” value in data set [6] (non-toxic doses (1 μg)) is “inactive”. Moreover, the fold induction at 0.1 µM in data set [7] (MCF7, 24 h) is 1.6 to 1.8; in data set [7] (MCF7, 72 h) it was 4.8.

Take `C=C1/C(=C/C=C2\CCC[C@]3(C)C([C@H](C)CCCC(C)(C)O)=CC[C@@H]23)C[C@@H](O)C[C@@H]1O` [1,25(OH)2-16-ene-5,6-trans-D3, 1,25-Dihydroxy-16-ene-5,6-trans-cholecalciferol]: the serum calcium level in data set [1] (0.1-2.0 μg/mouse i.p. every other day, 3 weeks, control mice 8-9 mg/dl) lay in the range of 8 to 10 mg/dL. The “serum calcium level compared with control mice” value in data set [1] (0.1-2.0 μg/mouse i.p., 3 weeks) is on record as “almost the same calcium level”. Besides, the survival result in data set [1] was “All mice survived”. Moreover, in data set [2] (HL-60 cells, 4 days), the “expression of hTERT mRNA” value is listed as “inhibited the expression of hTERT mRNA in a dose-dependent manner”. Moreover, in data set [2] (96 h, HL-60 cells, 4 days), the IC (almost complete) amounted to 0.01 µM. The “expression of p27^kip1” value in data set [3] is listed as “up-regulated”; in data set [3] (4 days, 10^-9 M) it was “markedly increased”. Moreover, in data set [4], the “number of cells in the G0-G1 phase” value is “significant increase (P≤0.05)”. Also, in data set [4], the “proportion of cells in S phase” value is reported as “concomitant decrease”. Besides, in data set [5], the clonogenic cells inhibited result is “Approximately forty”. In addition, the “androgen-induced hypertrophy of the seminal vesicles” value in data set [6] (castrated, testosterone stimulated hamsters) is given as “substantially suppressed”. Besides, the “Seminal vesicles Inhib. (percent inhibition of stimulated response)” value in data set [6] (testosterone + 0.1 μg compound s.c. daily, 14 days) was found to be 48%. In addition, the Seminal vesicles weight in data set [6] (testosterone + 0.1 μg compound s.c. daily, 14 days, mg ± SEM) is given as 71 ± 1 mg. The fold induction at 0.1 µM in data set [7] (MCF7, 24 h) was 3.2 to 3.5; in data set [7] (MCF7, 72 h) it was 2.8.
